Data as given in patent US20070015823A1, “Ambruticin VS compounds” (priority 2004, published 2007).
Values after ≈ are worked out from the molar mass of the structure shown.

Tests used:
A. fumigatus ATCC 204305 = experiment: Broth microdilution antifungal susceptibility, NCCLS M38-A; type: cell-based, Aspergillus fumigatus; settings: minimal concentration inhibiting >95% growth; average of at least two assays (except I-l and I-x)
Cryptococcus neoformans = experiment: as above; settings: 50% growth inhibition, range = minimum and maximum of multiple assays
Fusarium solani = experiment: as above; type: cell-based; settings: strain 96-1; 50% growth inhibition; range = minimum and maximum of multiple assays
S. apiospermum = experiment: as above; type: cell-based, Scedosporium apiospermum; settings: 50% growth inhibition, range = minimum and maximum of multiple assays
Candida albicans = settings: for MIC0 C. albicans 90028: 95% growth inhibition
Candida parapsilosis = settings: strain 92019; 95% growth inhibition
A. flavus ATCC 204304 = experiment: Broth microdilution antifungal susceptibility, NCCLS M38-A; type: cell-based, Aspergillus flavus; settings: minimal concentration inhibiting >95% growth; average of at least two assays (except I-l and I-x)
Candida krusei = settings: strain 6258; 95% growth inhibition
Histoplasma capsulatum = type: cell-based
Blastomyces dermatitidis = experiment: Broth microdilution antifungal susceptibility, NCCLS M38-A; type: cell-based
C. posadasii = experiment: microbe, parasite or virus in culture; type: cell-based, Coccidioides posadasii; settings: 80% growth inhibition
C. immitis = experiment: microbe, parasite or virus in culture; type: cell-based, Coccidioides immitis
Trichophyton rubrum = experiment: Dermatophyte broth microdilution, NCCLS M38-A; type: cell-based
[1] = system: Trichophyton interdigitale; experiment: Dermatophyte broth microdilution, NCCLS M38-A; type: cell-based
[2] = system: Trichophyton mentagrophytes; experiment: Dermatophyte broth microdilution, NCCLS M38-A; type: cell-based
Epidermophyton floccosum = experiment: Dermatophyte broth microdilution, NCCLS M38-A; type: cell-based
Microsporum gypseum = experiment: Dermatophyte broth microdilution, NCCLS M38-A; type: cell-based
Microsporum canis = experiment: Dermatophyte broth microdilution, NCCLS M38-A; type: cell-based

SMILES: C[C@@H]1[C@H](O)[C@@H](C)/C=C/C=C/C=C/C=C/C=C/C=C/C=C/[C@H](O[C@@H]2O[C@H](C)[C@@H](O)[C@H](N)[C@@H]2O)C[C@@H]2O[C@](O)(C[C@@H](O)C[C@@H](O)[C@H](O)CC[C@@H](O)C[C@@H](O)CC(=O)O[C@H]1C)C[C@H](O)[C@H]2C(=O)O [Amphotericin B, reference compound]
- MIC0 A. fumigatus ATCC 204305 (A. fumigatus ATCC 204305): 1.53 µg/mL
- MIC C. neoformans 97-14 (Cryptococcus neoformans; strain 97-14): 0.5 to 2 µg/mL
- MIC C. neoformans 11239 (Cryptococcus neoformans; strain 11239): 0.5 to 1 µg/mL
- MIC C. neoformans 11240 (Cryptococcus neoformans; strain 11240): 0.5 to 1 µg/mL
- MIC F. solani 96-1 (Fusarium solani): 1 to 2 µg/mL
- MIC S. apiospermum 94-54 (S. apiospermum; strain 94-54): >32 µg/mL
- MIC S. apiospermum 98-38 (S. apiospermum; strain 98-38): 4 µg/mL (≈ 4.33 µM)
- MIC S. apiospermum 98-89 (S. apiospermum; strain 98-89): 8 µg/mL (≈ 8.66 µM)
- MIC C. albicans 24433 (Candida albicans; strain 24433, 50% growth inhibition, range = minimum and maximum of multiple assays): 2 to 4 µg/mL
- MIC C. albicans 90028 (Candida albicans; strain 90028, 50% growth inhibition, range = minimum and maximum of multiple assays): 2 to 4 µg/mL
- MIC0 C. albicans 90028 (Candida albicans; strain 90028): 1 µg/mL
- MIC0 C. parapsilosis 92019 (Candida parapsilosis): 1 µg/mL
- MIC0 A. flavus ATCC 204304 (A. flavus ATCC 204304): 1.67 µg/mL
- MIC0 C. krusei 6258 (Candida krusei): 1 µg/mL
- MIC H. capsulatum G217B (Histoplasma capsulatum; strain G217B, 50% growth inhibition): 0.19 µg/mL (≈ 0.206 µM)
- MIC H. capsulatum GS20 (Histoplasma capsulatum; strain GS20, 50% growth inhibition): 0.19 µg/mL (≈ 0.206 µM)
- MIC B. dermatitidis Gu (Blastomyces dermatitidis; strain Gu, 50% growth inhibition): 2 µg/mL (≈ 2.16 µM)
- MIC B. dermatitidis Kr (Blastomyces dermatitidis; strain Kr, 50% growth inhibition): 1 µg/mL (≈ 1.08 µM)
- MIC B. dermatitidis V (Blastomyces dermatitidis; strain V, 50% growth inhibition): 1 µg/mL (≈ 1.08 µM)
- MIC C. posadasii C735 (C. posadasii; strain C735): 1 µg/mL (≈ 1.08 µM)
- MIC C. posadasii RMSCC 2127 (C. posadasii; strain RMSCC 2127): 1 µg/mL (≈ 1.08 µM)
- MIC C. posadasii Silveria (C. posadasii; strain Silveria): 1 µg/mL (≈ 1.08 µM)
- MIC C. immitis RMS 2281 (C. immitis; strain RMS 2281, 80% growth inhibition): 1 µg/mL (≈ 1.08 µM)
- MIC C. immitis RS (C. immitis; strain RS, 80% growth inhibition): 1 µg/mL (≈ 1.08 µM)
- MIC C. immitis S46 (C. immitis; strain S46, 80% growth inhibition): 1 µg/mL (≈ 1.08 µM)

SMILES: CC[C@H]1O[C@@H](/C(C)=C/[C@H](C)/C=C/[C@H]2[C@@H](C)[C@@H]2/C=C/[C@@H]2O[C@H](CC(=O)O)C[C@H](N)[C@H]2O)CCC1C (stereo partly shown) [IV-a, 20,21-dihydro ambruticin VS-5]
- MIC0 Tr (Trichophyton rubrum): 0.5 µg/mL
- MIC0 Ti [1]: 0.39 µg/mL
- MIC0 Tm [2]: 1 µg/mL
- MIC0 Ef (Epidermophyton floccosum): 4 µg/mL
- MIC0 A. fumigatus ATCC 204305 (A. fumigatus ATCC 204305): 0.85 µg/mL
- MIC0 Mg (Microsporum gypseum): 0.5 µg/mL
- MIC0 Mc (Microsporum canis): 0.5 µg/mL
- MIC2 C. albicans 05-1422 (Candida albicans; strain 05-1422): ≦0.15 μg/mL
- growth of Candida albicans strain 05-1422 (Candida albicans; strain 05-1422, statement in words): inhibits growth
- MIC2 C. albicans 05-1424 (Candida albicans; strain 05-1424): >10 µg/mL
- MIC2 C. albicans 05-1426 (Candida albicans; strain 05-1426): >10 µg/mL
- MIC0 C. albicans 90028 (Candida albicans; strain 90028): >32 µg/mL
- MIC0 C. parapsilosis 92019 (Candida parapsilosis): <0.0625 µg/mL
- MIC0 A. flavus ATCC 204304 (A. flavus ATCC 204304): 0.18 µg/mL
- MIC0 C. krusei 6258 (Candida krusei): >32 µg/mL
- MIC2 H. capsulatum 05-959 (Histoplasma capsulatum): ≦0.15 μg/mL
- MIC2 H. capsulatum 05-1097 (Histoplasma capsulatum): ≦0.15 μg/mL
- MIC2 H. capsulatum 05-1159 (Histoplasma capsulatum): ≦0.15 μg/mL
- MIC2 B. dermatitidis 05-106 (Blastomyces dermatitidis): ≦0.15 μg/mL
- MIC2 B. dermatitidis 05-186 (Blastomyces dermatitidis): ≦0.15 μg/mL
- MIC2 B. dermatitidis 05-1291 (Blastomyces dermatitidis): ≦0.15 μg/mL
- MIC2 C. immitis 05-469 (C. immitis): ≦0.15 μg/mL
- MIC2 C. immitis 05-955 (C. immitis): ≦0.15 μg/mL
- MIC2 C. immitis 05-1387 (C. immitis): ≦0.15 μg/mL
